# Measured values reported in patent US4444778A, “Method and composition for treating atherosclerosis” (priority 1982, dated 1984).
# Entries after “also recorded” stand apart in the source; their conditions may differ.
# Key:
# Smooth muscle cells = test: 3H-thymidine incorporation into smooth muscle cells (Example 3, Table III); assay type: cell-based; conditions: for effect on 3H-thymidine incorporation / response to serotonin: cyproheptadine 10^-7 M, similar = as with cyproheptadine; for CPM/Well (3H-thymidine incorporation): about 36 h, mean ± SEM, n = 4; for % Increase (3H-thymidine incorporation): versus control
# Description: In this experiment, stimulation of ^3 H-thymidine incorporation is used as an index of the ability of a compound to promote smooth muscle cell proliferation. Smooth muscle cells are seeded in 96 well Linbro racks (5 mm diameter/well) and allowed to grow for 72 hours. […] After approximately 36 hours, the cells are washed with saline, fixed with 10% TCA, washed with water, lysed with 1% SDS, and the lysate counted for ^3 H. This procedure allows the investigator to assess the amount of ^3 H-thymidine taken up by smooth muscle cells and incorporated into DNA.
# [1] = system: Smooth muscle cells (BASMC); test: Smooth muscle cell number, 96 h incubation with serotonin, PDGF or serotonin receptor blocker (Example 2, Table II); assay type: cell-based, bovine; conditions: for effect on serotonin-induced increase in smooth muscle cell number / Cell Number/Plate: 96 h, 2.5% platelet-poor plasma; for effect on serotonin-induced increase in smooth muscle cell number: similar = as with cyproheptadine; for Cell Number/Plate: mean ± SEM, n = 6
# Description: Smooth muscle cells are grown from explants of bovine aortic media as described by Coughlin, et al (Platelet-Dependent Stimulation of Prostacyclin Synthesis by Platelet Derived Growth Factor, Nature, 288, pp. 600-602, 1980). Cells are seeded at 10^5 cells per 35 mm tissue culture well in Dulbecco's Modified Eagle Medium containing 10% calf serum and allowed to grow for 24 hours. The serum-containing medium is then removed and the cells are allowed to become quiescent in Medium 199 for 24 hours. The quiescent cultures are then incubated for 72 hours in Medium 199, with or without the mitogen to be tested. After the 72-hour incubation period, the cells are harvested for cell-number determination by Coulter Counter.
# Smooth muscle cells are seeded and made quiescent as described in Example 1. Cultures are then treated with serotonin, PDGF or cyproheptadine, a serotonin receptor blocker. The cultures are then incubated for 96 hours in Medium 199 containing 2.5% platelet-poor plasma and the treatment to be tested.
# [2] = system: aortic smooth muscle cell proliferation after vascular injury; test: Specific activity of aortic smooth muscle cell DNA after balloon catheter vascular injury (Example 4, Table IV); assay type: in vivo, rat; parameters: Specific Activity for smooth muscle cell DNA, repeat test: concentration or dose not given beside the values; conditions: for inhibition of injury-induced smooth muscle cell proliferation: after experimental vascular injury, similar = as with methiothepin 10 mg/kg i.p.; for dose dependent Specific Activity, methiothepin: vehicle = 100; for Specific Activity for smooth muscle cell DNA, repeat test: untreated 100, vehicle 92, standard error (%) in own column
# Description: Rat aortas are denuded of endothelium by passing a catheter with an inflated balloon at its tip down the length of the blood vessel. In animal models, this type of vascular injury has been shown by Goldberg, et al (Vascular Smooth Muscle Cell Kinetics: A New Assay For Studying Patterns of Cellular Proliferation In Vivo, Science, 205, 920-922, 1979), to stimulate formation of vascular lesions resembling those of human atherosclerosis 48 hours after injury. The rats are injected intravenously with ^3 H-thymidine, which is incorporated into the DNA of proliferating smooth muscle cells. After one hour, the specific activity of aortic smooth muscle cell DNA is determined and used as an index of smooth muscle cell proliferation in the injured vessel wall.
# [3] = system: vascular lesions of the aorta after de-endothelialization; test: Lesion area after aortic de-endothelialization (Example 5, Table V); assay type: in vivo, rat (male Sprague-Dawley); conditions: 25 mg/kg by gavage
# Excerpt: The use of serotonin antagonists in preventing or impeding arteriosclerotic lesion is indicated in vivo essentially in accordance with the de-endothelialization procedure of Tiell, et al (Influence of the Pituitary on Arterial Intima Proliferation in the Rat, Circulation Research, Vol. 42, No. 5, […], May 1978). Male Sprague-Dawley rats weighing 300-360 grams are fed a constant formula rodent lab chow and water ad libitum for two weeks prior to the start of the test. For two days before de-endothelialization and for the following 14 days until sacrifice, the animals receive either a placebo or 1 to 200 milligrams per kilogram per day of test compound. On the day of de-endothelialization, the drug is administered intravenously at one-tenth the oral dosage. De-endothelialization is carried out in the aortas of the anesthetized animals by balloon catheterization. The animals are weighed daily from the time of dosing and their behavior is recorded 3 to 4 hours following administration of the test compound. Fourteen days after catheterization, whole body perfusion fixation is carried out at 37° C. with 3% buffered glutaraldehyde in 0.15 M sodium cacodylate at pH 7.4 under 90-100 millimeters hydrostatic pressure. The aorta is removed, cut into 10 equal segments, and following two additional hours in the buffered glutaraldehyde, is treated with 1% osmium tetroxide, dehydrated, infiltrated with Squer's resin and cured. The segments are stained with Stevenal's blue and basic fuchsin, and the lesion areas is determined with a zeiss standard microscope and Videoplan computerized image analyzer. Please see examples for results.
# Male Sprague-Dawley rats weighing 300-360 grams are individually ear tagged, housed and allowed to acclimate for two weeks prior to the start of the test. A constant formula rodent lab chow from Ralston Purina and water are available to the animals ad libitum.
# For two days prior to de-endothelialization and for 14 days after, pizotyline at a dose of 25 milligrams per kilogram and placebo are administered by gavage in physiological saline to nine drug animals and 19 control animals. All animals are dosed between 8:00 and 10:00 A.M. daily. […] The animals are weighed daily at the time of dosing and behavior for each animal is recorded three to four hours after dosing. […]
# On the day of de-endothelialization, the animals are anesthetized by ether inhalation and catheterization is carried out by the following procedure. […] The catheter balloon tip is advanced cephaled to the aortic arch region as determined through external catheter demarcations and inflated to a pre-established maximum diameter with approximately 900 mm Hg air pressure. […]
# [4] = system: Smooth muscle cells (explants of bovine aortic media); test: Smooth muscle cell number, 72 h incubation with mitogen (Example 1, Table I); assay type: cell-based; conditions: for Cell Number/Plate: 72 h, mean ± SEM, n = 6; for smooth muscle proliferation in cell culture: with and without 2% human platelet-poor plasma
# Description: After the 72-hour incubation period, the cells are harvested for cell-number determination by Coulter Counter.
# [5] = system: Smooth muscle cells (explants of bovine aortic media); conditions: shown by others; cited from earlier work
compound,measurement,setting,value
CN1CCC(=C2c3ccccc3C=Cc3ccccc32)CC1 [Cyproheptadine],effect on 3H-thymidine incorporation / response to serotonin,Smooth muscle cells; PDGF 1 ng/ml,attenuates this response to serotonin
same,effect on serotonin-induced increase in smooth muscle cell number,[1],attenuated
CSc1ccc2c(c1)C(N1CCN(C)CC1)Cc1ccccc1S2 (centres unmarked) [Methiothepin],inhibition of injury-induced smooth muscle cell proliferation,[2]; b.i.d.,marked inhibition; also recorded: remarkably effective
same,"dose dependent Specific Activity, methiothepin",[2]; methiothepin 0.3 mg/kg,51
same,"dose dependent Specific Activity, methiothepin",[2]; methiothepin 1.0 mg/kg,24
same,"dose dependent Specific Activity, methiothepin",[2]; methiothepin 3.0 mg/kg,23
same,Specific Activity of aortic smooth muscle cell DNA,"[2]; methiothepin 10 mg/kg i.p., b.i.d., control 91.6 ± 13.7, mean ± standard error (N = 6)",18.1 ± 5.3 CPM/ugDNA
same,"dose dependent Specific Activity, methiothepin",[2]; methiothepin 10.0 mg/kg,20
same,"Specific Activity for smooth muscle cell DNA, repeat test",[2],23 % of control
"CN1CCC(=C2c3ccccc3CCc3sccc32)CC1 [Pizotyline, 4-[1-methyl-4-piperidylidene]-9,10-dihydro-4H-benzo[4,5]cyclohepta[1,2-b]thiophene]",inhibition of injury-induced smooth muscle cell proliferation,[2]; b.i.d.,remarkably effective
same,"Mean Lesion Area, Abdominal","[3]; abdominal, 2 days before and 14 days after, normalized to 1,000 μm length, control 60,310.3","27,135.4 Square Microns"
same,"reduction of lesion formation, abdominal segments","[3]; abdominal, compared to control",55%
same,"Mean Lesion Area, Thoracic","[3]; thoracic, 2 days before and 14 days after, normalized to 1,000 μm length, control 50,283.1","11,834.8 Square Microns"
same,"mean reduction of lesion formation, thoracic segments","[3]; thoracic, compared to control lesion areas",77%
COC(=O)[C@H]1[C@H]2C[C@@H]3c4[nH]c5cc(OC)ccc5c4CCN3C[C@H]2C[C@@H](OC(=O)c2cc(OC)c(OC)c(OC)c2)[C@@H]1OC [Reserpine],"Specific Activity for smooth muscle cell DNA, repeat test",[2],68 % of control
NCCc1c[nH]c2ccc(O)cc12 [Serotonin],Cell Number/Plate,"[4]; No Plasma, serotonin 10^-5 M",8.34 ± 0.43 ×10^-5
same,Cell Number/Plate,"[4]; Plasma (2% human platelet-poor plasma), serotonin 10^-5 M",12.19 ± 0.13 ×10^-5
same,smooth muscle proliferation in cell culture,[4],more smooth muscle cells are present; also recorded: potent promoter of smooth muscle proliferation
same,effect on 3H-thymidine incorporation / response to serotonin,Smooth muscle cells; PDGF 1 ng/ml,stimulates smooth muscle cell proliferation
same,CPM/Well (3H-thymidine incorporation),Smooth muscle cells; serotonin 10^-6 M,306.4 ± 3.1 CPM/Well (×10^-3)
same,% Increase (3H-thymidine incorporation),Smooth muscle cells; serotonin 10^-6 M,240%
same,CPM/Well (3H-thymidine incorporation),Smooth muscle cells; serotonin 10^-7 M,139.8 ± 11.9 CPM/Well (×10^-3)
same,% Increase (3H-thymidine incorporation),Smooth muscle cells; serotonin 10^-7 M,55%
same,inhibition of injury-induced smooth muscle cell proliferation,[2]; b.i.d.,important in mediating smooth muscle cell proliferation after vascular injury
same,effect on serotonin-induced increase in smooth muscle cell number,[1],increases the number of smooth muscle cells
same,Cell Number/Plate,[1]; serotonin 10^-5 M,7.68 ± 0.12 ×10^-5
same,% Maximum,"[1]; serotonin 10^-5 M, relative to 10% Fetal Calf Serum = 100",33%
PDGF,Cell Number/Plate,"[4]; No Plasma, PDGF 8 ng/ml",9.65 ± 0.29 ×10^-5
same,Cell Number/Plate,"[4]; Plasma (2% human platelet-poor plasma), PDGF 8 ng/ml",14.24 ± 0.04 ×10^-5
same,smooth muscle proliferation in cell culture,[4],active
same,CPM/Well (3H-thymidine incorporation),Smooth muscle cells; PDGF 1 ng/ml,454.7 ± 28.3 CPM/Well (×10^-3)
same,% Increase (3H-thymidine incorporation),Smooth muscle cells; PDGF 1 ng/ml,405%
same,effect on 3H-thymidine incorporation / response to serotonin,Smooth muscle cells; PDGF 1 ng/ml,increase thymidine incorporation
same,mitogen for smooth muscle cells,[5],mitogen for smooth muscle cells
same,Cell Number/Plate,"[1]; PDGF 0.5 ng/ml, alone or with serotonin / cyproheptadine as in label",8.11 ± 0.23 ×10^-5
same,% Maximum,"[1]; PDGF 0.5 ng/ml, alone or with serotonin / cyproheptadine as in label, relative to 10% Fetal Calf Serum",39%
same,Cell Number/Plate,"[1]; PDGF 4.0 ng/ml, alone or with serotonin / cyproheptadine as in label",10.66 ± 0.16 ×10^-5
same,% Maximum,"[1]; PDGF 4.0 ng/ml, alone or with serotonin / cyproheptadine as in label, relative to 10% Fetal Calf Serum",72%
